Laboratory results published in paper PMC7566913, “Dual Gene Delivery Reagents From Antiproliferative Alkylphospholipids for Combined Antitumor Therapy” (Frontiers in Chemistry, 2020).
Read-outs that look alike come from different tables or passages of the source.

Experiments:
[1] = system: sheep RBC; experiment: Hemolytic activity, red blood cell leakage assay; conditions: 37°C
Protocol: To evaluate this hypothesis, the hemolytic activity of the APLs and pro-APLs was measured. Sheep RBC were incubated for 1 h with escalating doses of aqueous dispersion of the compounds at 37°C. At the end of the incubation period, hemoglobin leakage was determined spectrophotometrically.
Thus, in order to better characterize the hemolytic effect of the pro-APLs, the incubation period has been extended and release of hemoglobin was measured after 24 h.
Red blood cell (RBC) leakage assay was carried out according to a previously described procedure
(Evans et al, 2013). RBC were prepared from defibrinated sheep blood. Briefly, blood sample (5 mL) was centrifuged at 500 x g for 5 min. After removal of the yellow upper layer, an equal volume of

[2] = system: H292 cells; experiment: Cytotoxicity, MTT assay, H292; assay type: cell-based, human
Protocol: (§1) The cells were exposed for a 24-h period to increasing concentration of the pro-APLs, ranging from 500 nM to 1 mM, and cell viability was assessed using the MTT colorimetric assay (Mosmann, [1983]). For the three cell lines, viability decreased in a dose-dependent manner in response to APLs and pro-APLs (Supplementary Figures 2–4). Using the best-fit regression curve method, the IC50 value (concentration that provokes 50% inhibition of the cell growth) was calculated for each compound (Table 4). The three cell lines responded to the compounds with varying sensitivities. […] This is attributed to enzyme-mediated hydrolysis of the pro-APL compounds in the complemented culture medium or in the intracellular compartment, competing with pure pH-controlled chemical hydrolysis. According to its structure, a pro-APL may or not be a substrate for specific lipases and, thus, may or not be hydrolyzed into the parent cytotoxic compound. […]
(§2) At confluency, cells were released […]
(§3) Cells were seeded into 96-well plates (Becton-Dickinson) at the required density (vide supra) in 100 µL of serum containing culture medium. […]
(§4) Mitochondrial activity measurements (MTT assay) was used to assess cytotoxicity of the compounds.
(§5) Lipid samples were prepared from a lipid film (3.6 µmol of compound evaporated from an ethanolic solution) hydrated with aqueous glucose 5 % and vigorously vortexed for 20 s before serial dilution in aqueous glucose 5 %. For addition of lipid samples to cell culture, part of the culture medium in the culture plates prepared the day before (25 µL) was removed and replaced by lipid samples (25 µL). Negative control was obtained by adding glucose 5 % to the cells instead of lipoplexes.
(§6) After a 24-h incubation period at 37 °C, culture supernatant was removed, cells were carefully washed with PBS and MTT (100 µL, 0.5 mg/mL) in complete culture medium was added. After a 1-h incubation period at 37 °C, the MTT sol ution was removed and DMSO (100 µL) was added to lyse cells and dissolve reduced MTT. Intensity of MTT reduction was then evaluated by measuring absorbance at 492 nm. Viability of cells treated with lipids or lipoplexes was expressed as the percentage of the absorbance measured in untreated cells. Value for each sample is the mean of triplicate determinations (± SD). IC50 values were determined within the 95 % confidence interval using nonlinear regression analysis with the GraphPad Prism software (GraphPad Software, San […]
(§7) All data are representative of a triplicate determination and are presented as the mean ± SD.
(§8) Statistical significance between treatments was assessed by one-way analysis of variance (ANOVA) followed by the Dunnett multiple comparison test, using the Kaleidagraph 4.5 software (Synergy Software, Reading, PA, USA). Data were considered as statistically significant for p value less than

[3] = Particle size and zeta potential of lipoplexes by DLS; assay type: physicochemical; conditions: lipoplexes with pCMV-Gluc, 25 °C, 5 % glucose, N/P 3, 1 molar equivalent of DOPE
Source text: The capacity of the pro-APLs to interact electrostatically with nucleic acids and form lipoplexes was checked by standard agarose gel electrophoresis. […] The size (hydrodynamic diameter) and charge (zeta potential, ζ) of the lipoplexes prepared at an N/P ratio of 3 with one molar equivalent of dioleoyl-sn-glycero-3-phosphatidylethanolamine (DOPE), a lipid with fusogenic properties (Hui et al., [1996]; Zuhorn et al., [2005]), were investigated by DLS (Supplementary Table 1).
as measured by DLS. Lipoplexes were prepared at 25 °C, in 5 % glucose, at a N/P ratio of 3 and with
1 molar equivalent of DOPE.
(Gaillard et al., 2019). Data are the mean of three independent measurements (± SD).

[4] = CMC/CAC by pyrene fluorescent probe technique in ultrapure water; assay type: physicochemical; conditions: pyrene fluorescence
Protocol: The pro-APL molecules have been specifically engineered so they can be metabolized in situ under a biological stimulus to revert to the parent APL with antiproliferative activity. […] We thus aimed to determine the self-assembly properties of the APL prodrugs. […] Pyrene is a probe which fluorescence is sensitive to the polarity of the solubilizing medium. […] Fluorescence measurements were carried out in ultrapure water and data obtained for the various APLs and their prodrugs are shown in Table 2.
Pro-APLs Self-Assembly Properties
Starting from a lipid film, compounds were […]

[5] = Hydrolytic stability of the APL prodrugs monitored by 31P-NMR; assay type: physicochemical; conditions: for half-life: extrapolated from the experimental data, read-out: t1/2 (time needed for 50% hydrolysis) (converted)
Source text: Aqueous formulation of the APL prodrugs produces nanosized lipid aggregates that most likely enter cells through the endocytosis pathway. To produce the expected intrinsic antineoplastic effect, APL-derived phosphotriesters need to be processed into the bioactive parent APLs. The hydrolysis of the prodrugs may be under the control of a chemical stimulus, e.g., a pH decrease as observed during the maturation of endosomes, or of degradation enzymes that massively enter the endosome compartment when continuing to lysosomes. To get some information on the transformation of pro-APLs into APLs, we monitored the hydrolysis of these compounds over time, at pH 7.4 and 4.5, conditions that mimick the extracellular milieu and the environment of the late endosome, respectively. This monitoring was realized using ^31P-NMR spectroscopy, according to a previously reported method (Pierrat et al., [2013b]). Whatever the compound investigated, only one single ^31P resonance did appear during the course of the experiments, corresponding to that of the parent APL. This confirmed that hydrolysis of the pro-APLs selectively occurred at the acetal center. […] As a general trend, hydrolysis of the pro-APLs was […] under neutral conditions (i.e., pH 7.4) than under acidic ones (i.e., pH 4.5). […] Besides, substitution of one hydrogen atom with a methyl group on the acetal bridge accelerated the rate of hydrolysis of the prodrugs. […] Indeed, in biological media, the enzyme-mediated hydrolysis of such compounds can proceed far quicker than “simple” chemical hydrolysis under pH control (Pierrat et al., [2012]). […]

[6] = system: 16HBE cells; experiment: Cytotoxicity, MTT assay, 16HBE; assay type: cell-based, human; conditions: 24 h at 37°C
Protocol: as §1, §2, §3, §4, §5, §6, §7, §8

[7] = system: A549 cells; experiment: Cytotoxicity, MTT assay, A549; assay type: cell-based, human; conditions: A549, 24 h at 37°C
Protocol: as §1, §2, §3, §4, §5, §6, §7, §8

[8] = system: 16HBE cells; parameters: method as in Gaillard et al., 2019; conditions: 24 h at 37°C, MTT assay, ref Gaillard et al., 2019; cited from earlier work
[9] = system: H292 cells; parameters: method as in Gaillard et al., 2019; conditions: H292, 24 h at 37°C, MTT assay; ref Gaillard et al., 2019; cited from earlier work
[10] = system: A549 cells; parameters: method as in Gaillard et al., 2019; conditions: A549, 24 h at 37°C, MTT assay; ref Gaillard et al., 2019; cited from earlier work
[11] = parameters: method as in Gaillard et al., 2019; conditions: pyrene fluorescence, ref Gaillard et al., 2019, cited from earlier work
[12] = system: sheep RBC; conditions: cited from earlier work
[13] = Homo sapiens, NCI-H292, H292, 24 h at 37°C
[14] = HEPES buffer with Triton X-100, pH 7.4
[15] = potassium acetate/acetic acid buffer with Triton X-100, pH 4.5

Compound | HA200 (hemolytic activity at 200 μM) ([1]; 24 h) | IC50 [2, 13] | Particle size of lipoplexes [3] | CMC (APLs) / CAC (pro-APLs) [4] | H120 (hydrolysis rate after a 120-h incubation period) ([5]; pH 4.5) | H120 (hydrolysis rate after a 120-h incubation period) ([5]; pH 7.4) | IC50 ([6]; Homo sapiens) | IC50 ([7]; Homo sapiens) | half-life [5, 14] | half-life [5, 15] | further results
CCCCCCCCCCCCCCCCCCOP(=O)(OCCCCCCCCCCCC)OC1CC[N+](C)(C)CC1.[Cl-] (stereo not shown) [Compound P12, 4-(((Dodecyloxy)(octadecyloxy)phosphoryl)oxy)-1,1-dimethylpiperidin-1-ium chloride] | 35.7 ± 4.1% | 63 ± 5 µM | 348 ± 43 nm | 1.2 ± 0.4 µM | 0% | 0% | 72 ± 7 µM | 56 ± 7 µM |  |  | HA200 (hemolytic activity at 200 μM) ([1]; 1 h): 8.1 ± 0.9%; Hydrolytic stability after extended incubation ([5]; pH 7.4 and pH 4.5, 31 days at 25°C): fully stable
3-((((((Dodecyloxy)carbonyl)oxy)methoxy)(octadecyloxy)phosphoryl)oxy)-N,N,N-trimethylpropan-1-aminium chloride [PC12] |  |  | 576 ± 41 nm | 4.5 ± 1.6 µM | 6% | 6% |  |  |  |  | IC50 ([2]; H292, 24 h at 37°C): 73 ± 17 µM; IC50 [6]: 82 ± 33 µM; IC50 [7]: 89 ± 24 µM
CCCCCCCCCCCCCCCCCCOP(=O)(OC1CC[N+](C)(C)CC1)OC(C)OC(=O)CCCCCCCCCCC.[Cl-] (stereo not shown) [P E^′12, 4-(((1-(Dodecanoyloxy)ethoxy)(octadecyloxy)phosphoryl)oxy)-1,1-dimethylpiperidin-1-ium chloride] | 80.1 ± 0.2% | 116 ± 25 µM | 610 ± 54 nm | 2.3 ± 1.4 µM | 60% | 60% | 60 ± 5 µM | 148 ± 38 µM | 84 h | 90 h | 
Erufosine [reference compound] |  |  |  |  |  |  |  |  |  |  | IC50 [8]: 19 ± 3 µM; IC50 [9]: 46 ± 8 µM; IC50 [10]: 57 ± 8 µM; CMC (APLs) / CAC (pro-APLs) [11]: 1.6 ± 0.5 µM; CMC (APLs) / CAC (pro-APLs) ([11]; listed as erufosine): 1.6 µM; HA200 (hemolytic activity at 200 μM) [12]: 84.9 ± 4.5%
CCCCCCCCCCCCCCCCOP(=O)(OCC[N+](C)(C)C)OC(C)OC(=O)CCCCCCCCCCC.[Cl-] (stereo not shown) [M E^′12, 2-(((1-(Dodecanoyloxy)ethoxy)(hexadecyloxy)phosphoryl)oxy)-N,N,N-trimethylethan-1-aminium chloride] | 101.7 ± 1.8% | 59 ± 10 µM | 86 ± 3 nm | 1.3 ± 0.7 µM | 91% | 89% | 49 ± 6 µM | 139 ± 32 µM | 18 h | 17 h | 
